The structures appear in SMILES notation.

Here are results for one compound from patent US10696951B2, “Method for culturing pluripotent stem cells” (JTEC Corporation, priority 2014, dated 2020).

The test system of this experiment is 253G1 cells. Kind of experiment: Rotary culture of 253G1 cells with RWV bioreactor in 10 mL vessel: spheroid formation and proliferation rate. It counts as cell-based, human. Particulars: for Proliferation rate: 5 days, detached with 5 mM EDTA and TrypLE Select. The method, then: To perform three-dimensional culture, 253G1 cells to be seeded were detached into small spheroids (loose cell masses each having a diameter of approximately 50 μm to 200 μm) each consisting of 20 to 40 cells with 5 mM EDTA. The detached 4.9×10^5 253G cells (small spheroids obtained through chemical disrupting) were seeded in an mTeSR1 medium (10 mL) containing the ROCK (Rho-associated kinase) inhibitor Y27632 (Wako Pure Chemical Industries, Ltd., 10 μM) or an mTeSR1 medium (10 mL) free of the ROCK inhibitor Y27632 in a 10 mL RWV vessel (diameter: 5 cm; Synthecon, Incorporated), and rotary-cultured with an RWV bioreactor (Synthecon, Incorporated) at 37° C. and 8 rpm for 3 days. After culturing, a photograph of a phase contrast image of spherical spheroids produced in the culture medium was taken with the inverted microscope Axio Observer (Carl Zeiss) (FIG. 1). In addition, the diameter of each spherical spheroid was measured, and the size distribution was investigated (FIG. 2).
Subsequently, the spherical spheroids were collected, and disrupted by pipetting with a pipette to disperse the cells. The number of the cells was counted by using the automated cell counter, Countess™ (Invitrogen). From the total number of the cells in the culture medium, the proliferation rate relative to the number of the cells seeded (4.9×10^5 cells) was calculated (total number of cells/4.9×10^5 cells).
To determine a more suitable ROCK inhibitor concentration, 253G1 cells were rotary-cultured for 3 days under the same conditions as in the above except that three ROCK inhibitor concentrations (3 μM, 10 μM, or 30 μM) were used. After culturing, the number of spherical spheroids formed was 10 in the case of 3 μM, 50 in the case of 10 μM, and 20 in the case of 30 μM.
To determine a more suitable number of cells to be seeded, 253G1 cells detached into small spheroids each consisting of approximately 20 to 40 cells with 5 mM EDTA and TrypLE™ Select were seeded at 4.27×10^5, 8.55×10^5, or 1.28×10^6 cells in a 10 mL RWV vessel, and rotary-cultured for 5 days in an mTeSR1 medium containing or free of the ROCK inhibitor Y27632 (10 μM) by the same method as in the above (1). After culturing, the number of the cells was counted and the proliferation rate was calculated in the same manner as in the above.
Further, the 253G1 cells detached into small spheroids each consisting of approximately 20 to 40 cells with only 5 mM EDTA were seeded in a 10 mL RWV vessel at a number of cells seeded in the above preferred range, and rotary-cultured in a 10 μM ROCK inhibitor Y27632-containing mTeSR1 medium (10 mL) for 3 days.

The mark [1] stands for this setting: 10 μM in mTeSR1, 4.9×10^5 cells seeded, 10 mL RWV vessel, 8 rpm, 3 days, detached with 5 mM EDTA.
The mark [2] stands for this setting: 1st run, 10 μM, 4.9 × 10^5 cells seeded, 10 mL vessel, 3 days, only 5 mM EDTA.
Where [3] appears, read: 2nd run, 10 μM, 4.1 × 10^5 cells seeded, 10 mL vessel, 3 days, only 5 mM EDTA.

For the compound `C[C@@H](N)[C@H]1CC[C@H](C(=O)Nc2ccncc2)CC1.Cl.Cl.O` (relative stereo) [Y27632, (R)-(+)-trans-N-(4-pyridyl)-4-(1-aminoethyl)-cyclohexanecarboxamide.2HClH2O], the “Number of spherical spheroids formed” value (3 μM, 10 mL vessel, 3 days) stood at 10; the “Number of spherical spheroids formed” value (10 μM, 10 mL vessel, 3 days) was 50; the “Number of spherical spheroids formed” value (30 μM, 10 mL vessel, 3 days) stood at 20. Moreover, under setting [1], the “Proliferation rate (total number of cells / cells seeded)” value was found to be 6.5 fold. Also, the “Total number of cells” value reads like this: under setting [1], 3.1 × 10^6 cells; (10 μM in mTeSR1, 4.9×10^5 cells seeded, 10 mL RWV vessel, 8 rpm, 3 days, detached with 5 mM EDTA, listed as ROCK inhibitor) 3.1×10^6 cells; under setting [3], 2.4 × 10^6 cells. In addition, the Proliferation rate (10 μM, 1.28 × 10^6 cells seeded/10 mL vessel) is reported as 1.43-fold; the Proliferation rate (10 μM, 4.27 × 10^5 cells seeded/10 mL vessel) is recorded as 4.78-fold; the Proliferation rate (10 μM, 8.55 × 10^5 cells seeded/10 mL vessel) was 1.93-fold. Besides, the “Formation of spherical spheroids” value (10 μM, 4.9×10^5 cells seeded, 10 mL vessel, 3 days, inhibitor-free medium gave no spheroids) is “numerous spherical spheroids were formed”. Moreover, the “Proliferation rate versus ROCK inhibitor-free medium” value (10 μM, 10 mL vessel, experiment repeated a plurality of times) is reported as “significantly increased”. Besides, the “Number of only cells of spheroids” value by setting is: under setting [2], 2.4 × 10^6 cells; under setting [3], 1.4 × 10^6 cells. The Number of spheroids entry is reported as “approximately 130 spheroids” under setting [2] and “approximately 100 spheroids” under setting [3]. Besides, the “Proliferation rate of only cells of spheroids” value by setting is: under setting [2], 4.9 fold; under setting [3], 3.41 fold. Further, under setting [3], the “Proliferation rate (total number of cells)” value is on record as 5.85 fold.
